Several values for one entry are separate records, joined by “and”; a condition that tells them apart may be missing. Equal entries are not always repeated.
Assays:
[1] = Microsomal stability, mouse; assay type: in vitro ADME; details: for CLint in vivo: scaled up using PBSF
Experimental: (§1) The metabolic stability assay was performed by incubating compounds individually (0.8, 4, or 20 µM) with mouse, rat, dog and human liver microsomes (Fisher, 0.5 mg/mL protein concentration) at 37 °C. The metabolic reaction was initiated by the addition of a NADPH-regenerating system and quenched at various time points by the addition of acetonitrile according to a published method.
(§2) The remaining concentration of each compound was measured as a ratio of peak area to the internal standard. The log peak area ratio was plotted vs. time (h), and the slope was determined to calculate the elimination rate constant [k = (− 2.303) * slope]. If deviation from first order kinetics was evident, only the initial linear portion of the plot was used to determine the rate constate, k. The half-life (h) was calculated as t1/2 = 0.693/k. Intrinsic clearance in vitro was calculated as CLintin vitro = (1000)*(0.693/t1/2*60)/0.5, where microsomal concentration in the reaction solution was 0.5 mg/mL; 1000 and 60 are scaling factors for volume (µL) and time (min), respectively. The intrinsic in vitro clearance was scaled to the intrinsic in vivo clearance using physiology based scaling factor (PBSF): CLint in vivo= CLint in vitro *PBSF: (microsome protein/gram liver) * (gram liver/kg b.w.), with PBSF: 47 (mouse), 47(rat), 58 (dog), 32 (human); and liver weight proportions: 54.9 (mouse), 36.6 (rat), 32.9 (dog) 25.7 (human).

[2] = Microsomal stability, rat; assay type: in vitro ADME; details: for CLint in vivo: scaled up using PBSF
Experimental: as §1, §2

[3] = Microsomal stability, human; assay type: in vitro ADME; details: for CLint in vivo: scaled up using PBSF
Experimental: as §1, §2

[4] = LogD octanol/pH 7.4 buffer shake flask; assay type: physicochemical
Experimental: Octanol/pH 7.4 buffer partitioning experiments were conducted using a shake flask method, and pKa was assessed by potentiometric titration. Both methods have been described previously.

CYP1A2 = molecular target: T1, CYP1A2 (Homo sapiens, UniProt P05177); experiment: CYP450 inhibition, CYP1A2; assay type: in vitro ADME; details: for inhibition of CYP1A2: 10 µM, probe substrate Ethoxy-resorufin, replicate measurements
T1 construct: purchased Cypex Ltd (Bactosomes)
T1 sequence (P05177 1-516): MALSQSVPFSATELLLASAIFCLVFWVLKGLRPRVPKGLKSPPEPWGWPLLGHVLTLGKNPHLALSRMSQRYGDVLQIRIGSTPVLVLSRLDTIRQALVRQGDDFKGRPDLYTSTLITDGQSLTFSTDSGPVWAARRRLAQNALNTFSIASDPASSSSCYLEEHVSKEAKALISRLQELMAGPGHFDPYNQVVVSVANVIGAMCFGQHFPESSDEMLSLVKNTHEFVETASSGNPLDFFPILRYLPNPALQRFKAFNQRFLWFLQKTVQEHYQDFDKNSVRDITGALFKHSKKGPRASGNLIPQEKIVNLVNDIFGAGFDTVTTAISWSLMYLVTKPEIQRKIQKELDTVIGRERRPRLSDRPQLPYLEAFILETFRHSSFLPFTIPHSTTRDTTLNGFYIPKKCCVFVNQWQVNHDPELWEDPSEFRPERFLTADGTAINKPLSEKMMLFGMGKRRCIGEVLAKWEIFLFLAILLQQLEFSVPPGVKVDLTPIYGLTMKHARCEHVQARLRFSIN

CYP2C19 = molecular target: T2, CYP2C19 (Homo sapiens, UniProt P33261); experiment: CYP450 inhibition, CYP2C19; assay type: in vitro ADME; details: for inhibition of CYP2C19: 10 µM, probe substrate S-mephenytoin, replicate measurements
T2 construct: purchased Cypex Ltd (Bactosomes)

CYP3A4 = molecular target: T3, CYP3A4 (Homo sapiens, UniProt P08684); experiment: CYP450 inhibition, CYP3A4; assay type: in vitro ADME
T3 construct: purchased Cypex Ltd (Bactosomes)

mouse plasma proteins = experiment: Plasma protein binding (RED), mouse; assay type: in vitro ADME; details: average of 20, 4, 0.8 µM
Experimental: A Rapid Equilibrium Dialysis (RED) Plate (Thermo Scientific, catalog #, PI-90007) was used to determine the percentage of compound binding to plasma proteins. The positive control for this experiment was propranolol-HCl (10 mM in DMSO) and the internal standard was warfarin (2 µM in methanol). 10 mM stocks of compound in DMSO were diluted with DMSO acetonitrile (1:4, v:v) to three different intermediate concentrations: high (2 mM), medium (0.4 mM) and low (0.08 mM). A 10 mM stock of propranolol in DMSO was diluted to 0.4 mM concentration in DMSO:acetonitrile (1:4 v:v). In 16 Eppendorf tubes, the control (10 µL) or each of three compound dilutions (10 µL) were each added to separate aliquots of mouse, rat, dog, and human plasma (990 µL). In the RED plate, potassium phosphate buffer (500 µL, 0.1 M, pH 7.4, 37 °C) was placed in every white well and each plasma/compound mixture was added to each of 3 red wells. […] The compounds and internal standard were detected by selected ion recording (SIR). Using the peak area ratio of compound to warfarin from the SIR spectra, the percentage of free compound [1] and bound compound [2] were calculated using the following equations: (1) % free = (concentration buffer chamber/concentration plasma chamber)*100, and (2) % bound = 100 − % free.

[5] = mouse microsomes, 0.8 µM, independent replicate to Table 4
[6] = mouse microsomes, 4 µM, independent replicate to Table 4
[7] = mouse microsomes, 20 µM, independent replicate to Table 4
[8] = rat microsomes, 0.8 µM, independent replicate to Table 4
[9] = rat microsomes, 4 µM, independent replicate to Table 4
[10] = rat microsomes, 20 µM, independent replicate to Table 4
[11] = human microsomes, 0.8 µM, independent replicate to Table 4
[12] = human microsomes, 4 µM, independent replicate to Table 4
[13] = human microsomes, 20 µM, independent replicate to Table 4
[14] = mouse microsomes, 20, 4, 0.8 µM
[15] = human microsomes, 20, 4, 0.8 µM
[16] = 10 µM, probe substrate Midazolam, replicate measurements

T2 sequence (P33261 whole entry): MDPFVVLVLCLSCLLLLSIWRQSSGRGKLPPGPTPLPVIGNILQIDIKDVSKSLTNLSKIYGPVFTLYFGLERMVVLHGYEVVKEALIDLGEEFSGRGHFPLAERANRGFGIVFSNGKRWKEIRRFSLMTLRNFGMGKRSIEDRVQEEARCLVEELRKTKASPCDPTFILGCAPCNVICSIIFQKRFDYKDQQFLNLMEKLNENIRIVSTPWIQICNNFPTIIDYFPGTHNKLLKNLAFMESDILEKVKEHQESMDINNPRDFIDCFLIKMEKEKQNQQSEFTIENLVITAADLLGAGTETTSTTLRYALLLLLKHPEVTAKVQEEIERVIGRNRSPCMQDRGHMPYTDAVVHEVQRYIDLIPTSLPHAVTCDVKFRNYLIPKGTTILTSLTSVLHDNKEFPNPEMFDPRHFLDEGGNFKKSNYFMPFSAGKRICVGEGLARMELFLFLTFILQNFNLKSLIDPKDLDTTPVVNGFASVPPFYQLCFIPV
T3 sequence (P08684 whole entry): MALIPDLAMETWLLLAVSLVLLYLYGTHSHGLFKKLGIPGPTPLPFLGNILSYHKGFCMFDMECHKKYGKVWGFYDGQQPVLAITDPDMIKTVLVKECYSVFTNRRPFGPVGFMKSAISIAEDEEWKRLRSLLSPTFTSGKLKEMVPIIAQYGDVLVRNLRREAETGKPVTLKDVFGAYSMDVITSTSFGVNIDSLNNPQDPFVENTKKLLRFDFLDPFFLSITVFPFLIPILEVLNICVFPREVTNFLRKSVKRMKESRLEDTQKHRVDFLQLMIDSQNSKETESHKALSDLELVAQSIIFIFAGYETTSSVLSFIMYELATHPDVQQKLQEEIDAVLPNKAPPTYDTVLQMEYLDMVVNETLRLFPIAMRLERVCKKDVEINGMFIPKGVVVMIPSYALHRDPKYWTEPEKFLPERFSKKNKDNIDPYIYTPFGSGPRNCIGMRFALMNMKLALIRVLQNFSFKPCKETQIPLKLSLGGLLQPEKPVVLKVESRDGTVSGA

With `N#Cc1cc(NC(=O)[C@H]2c3ccccc3C(=O)N(CC(F)(F)F)[C@@H]2c2cccnc2)ccc1F` [(+)-SJ733] the CLint ([1]; mouse microsomes, 0.8 µM) was 35.4 ± 2.1 µl/min/mg protein, the t1/2 ([1]; mouse microsomes, 0.8 µM) was 0.7 ± 0.1 h and the CLint in vitro [1, 5] was 33.9 ± 1.3 µl/min/mg protein. For the same compound, the CLint in vivo ([1]; mouse microsomes, 0.8 µM) was 79.3 ± 3.0 mL/min/kg, the CLint in vitro [1, 6] was 27.2 ± 1.3 µl/min/mg protein and the CLint in vivo ([1]; mouse microsomes, 4 µM) was 63.8 ± 2.9 mL/min/kg. It also gave a CLint in vitro [1, 7] of 15.9 ± 2.2 µl/min/mg protein, a CLint in vivo ([1]; mouse microsomes, 20 µM) of 37.3 ± 5.3 mL/min/kg and a CLint ([2]; rat microsomes, 0.8 µM) of under 7 µl/min/mg protein. It also gave a t1/2 ([2]; rat microsomes, 0.8 µM) of over 4 h, a CLint in vitro [2, 8] of under 7 µl/min/mg protein and a CLint in vivo ([2]; rat microsomes, 0.8 µM) of under 11.7 mL/min/kg. It also gave a CLint in vitro [2, 9] of under 7 µl/min/mg protein, a CLint in vivo ([2]; rat microsomes, 4 µM) of under 11.7 mL/min/kg and a CLint in vitro [2, 10] of under 7 µl/min/mg protein. It also gave a CLint in vivo ([2]; rat microsomes, 20 µM) of under 11.7 mL/min/kg, a CLint ([3]; human microsomes, 0.8 µM) of 45.5 ± 4.0 µl/min/mg protein and a t1/2 ([3]; human microsomes, 0.8 µM) of 0.5 ± 0.1 h. It also gave a CLint in vitro [3, 11] of 42.6 ± 0.7 µl/min/mg protein, a CLint in vivo ([3]; human microsomes, 0.8 µM) of 38.4 ± 0.7 mL/min/kg and a CLint in vitro [3, 12] of 34.5 ± 0.6 µl/min/mg protein. For the same compound, the CLint in vivo ([3]; human microsomes, 4 µM) was 31.0 ± 0.5 mL/min/kg, the CLint in vitro [3, 13] was 20.6 ± 0.5 µl/min/mg protein and the CLint in vivo ([3]; human microsomes, 20 µM) was 18.5 ± 0.4 mL/min/kg.
With `N#Cc1cc(NC(=O)C2c3ccccc3C(=O)N(CC(F)(F)F)C2c2cn[nH]c2)ccc1F` (racemic) [(r)-SJ311] the “LogD (7.4) Shake flask” value [4] was 2.34, the CLint in vitro [1, 14] was under 7 µl/min/mg protein and the CLint in vivo [1, 14] was under 13.5 mL/min/kg. For the same compound, the CLint in vitro ([2]; rat microsomes, 20, 4, 0.8 µM) was under 7 µl/min/mg protein, the CLint in vivo ([2]; rat microsomes, 20, 4, 0.8 µM) was under 11.7 mL/min/kg and the CLint in vitro [3, 15] was under 7 µl/min/mg protein. For the same compound, the CLint in vivo [3, 15] was under 5.2 mL/min/kg, the “inhibition of CYP1A2” value (CYP1A2) was 5% and 0.5% and the “inhibition of CYP2C19” value (CYP2C19) was 12%. For the same compound, the “inhibition of CYP3A4” value (CYP3A4; [16]) was 54% and 52% and the “% bound” value (mouse plasma proteins) was 93.7 ± 0.7%.
In the case of `N#Cc1cc(NC(=O)[C@H]2c3ccccc3C(=O)N(CC(F)(F)F)[C@@H]2c2cn[nH]c2)ccc1F` [SJ311], the logD ([4]; pH 7.4) is reported as 2.3, the “CYP1A2 inhibition, in words” value (CYP1A2) is reported as “weak inhibitors” and the “CYP2C19 inhibition, in words” value (CYP2C19) is reported as “weak inhibitor”. For the same compound, the “CYP3A4 inhibition, in words” value (CYP3A4) was “moderate inhibitors” and the inhibition at 10 µM (CYP3A4; human, pH 7.4, 10 µM, probe substrate Midazolam, replicate measurements) was 53%.
With `N#Cc1cc(NC(=O)[C@H]2c3ccccc3C(=O)N(CC(F)(F)F)[C@@H]2c2cn[nH]c2)ccc1F` [(+)-SJ311] the “LogD (7.4) Shake flask” value [4] was 2.30, the CLint ([1]; mouse microsomes, 0.8 µM) was under 7 µl/min/mg protein and the t1/2 ([1]; mouse microsomes, 0.8 µM) was over 4 h. It also gave a CLint ([2]; rat microsomes, 0.8 µM) of under 7 µl/min/mg protein, a t1/2 ([2]; rat microsomes, 0.8 µM) of over 4 h and a CLint ([3]; human microsomes, 0.8 µM) of under 7 µl/min/mg protein. For the same compound, the t1/2 ([3]; human microsomes, 0.8 µM) was over 4 h.
With `N#Cc1cc(NC(=O)[C@H]2c3ccccc3C(=O)N(CC(F)(F)F)[C@@H]2c2cccnc2)ccc1F` (racemic) [SJ733] the “CYP1A2 inhibition, in words” value (CYP1A2) was “weak inhibitors”, the “CYP2C19 inhibition, in words” value (CYP2C19) was “weakly inhibited” and the “CYP3A4 inhibition, in words” value (CYP3A4) was “moderate inhibitors”.
Compound `N#Cc1cc(NC(=O)C2c3ccccc3C(=O)N(CC(F)(F)F)C2c2cccnc2)ccc1F` (racemic) [(r)-SJ733] has a CLint in vitro [1, 5] of 9.1 ± 0.5 µl/min/mg protein, a CLint in vivo ([1]; mouse microsomes, 0.8 µM) of 21.4 ± 1.3 mL/min/kg and a CLint in vitro [1, 6] of 10 ± 0.5 µl/min/mg protein. The CLint in vivo ([1]; mouse microsomes, 4 µM) was 23.4 ± 1.1 mL/min/kg, the CLint in vitro [1, 7] was under 7 µl/min/mg protein and the CLint in vivo ([1]; mouse microsomes, 20 µM) was under 13.5 mL/min/kg. It also gave a CLint in vitro [2, 8] of under 7 µl/min/mg protein, a CLint in vivo ([2]; rat microsomes, 0.8 µM) of under 11.7 mL/min/kg and a CLint in vitro [2, 9] of under 7 µl/min/mg protein. It also gave a CLint in vivo ([2]; rat microsomes, 4 µM) of under 11.7 mL/min/kg, a CLint in vitro [2, 10] of under 7 µl/min/mg protein and a CLint in vivo ([2]; rat microsomes, 20 µM) of under 11.7 mL/min/kg. It also gave a CLint in vitro [3, 11] of 12.7 ± 0.3 µl/min/mg protein, a CLint in vivo ([3]; human microsomes, 0.8 µM) of 11.5 ± 0.3 mL/min/kg and a CLint in vitro [3, 12] of 11.5 ± 0.3 µl/min/mg protein. It also gave a CLint in vivo ([3]; human microsomes, 4 µM) of 10.3 ± 1.2 mL/min/kg, a CLint in vitro [3, 13] of under 7 µl/min/mg protein and a CLint in vivo ([3]; human microsomes, 20 µM) of under 5.2 mL/min/kg. For the same compound, the “inhibition of CYP1A2” value (CYP1A2) was 10.8%, the “inhibition of CYP2C19” value (CYP2C19) was 5, 5% and the “inhibition of CYP3A4” value (CYP3A4; [16]) was 42% and 33%. For the same compound, the “% bound” value (mouse plasma proteins) was 95.7 ± 0.6%.

From article PMC7893776, “Selecting an anti-malarial clinical candidate from two potent dihydroisoquinolones” (Malaria Journal, 2021)
